This test relates to 5xFAD mice. The experiment in a line: Radial arm maze test in 5xFAD model of Alzheimer's disease. It counts as in vivo, mouse. To be noted: 20 mg/kg/day, 3 to 7 months of age. The method, then: FIG. 6. A, B and C: Chronic treatment with HPA acid or its prodrug, DHA-H, prevents cognitive decline typical of Alzheimer's disease in the murine transgenic model (5xFAD). Cognitive assessment was performed by the 8-arm Radial Labyrinth test. The animals received treatment between 3 and 7 months of age and the test was performed during the last month of treatment. During this test, the total errors made during the test (A), the reference memory errors (RME) (B) and the working memory errors (WME) (C) were taken into account. Each column represents the mean±SEM of errors during the last week of the radial labyrinth test. The black columns represent the errors made by WT mice. The blank columns represent the errors made by the 5xFAD transgenic mice treated with the vehicle (5% ethanol). Striped columns represent errors made by 5xFAD mice treated with DHA-H (20 mg/kg/day). Boxed columns represent errors made by 5xFAD mice treated with HPA (20 mg/kg/day). […] The bars represent the mean±standard error for each treatment condition and the statistical analysis was performed by unidirectional ANOVA and the Tukey multiple evaluation test: *p<0.05 when compared to healthy control (WT) and #p<0.05 when compared to 5xFAD control condition (treated with the vehicle). […]

As to `CCC=CCC=CCC=CCC=CCC=CCC=CCC(O)C(=O)O` (centres unmarked) [DHA-H, 2-hydroxy-drocosahexaenoic acid], the “Cognition in 8-arm radial labyrinth test (total errors, RME, WME)” value is “cognitive improvement”.
For `CC/C=C\C/C=C\C/C=C\C/C=C\C/C=C\CCCCC(=O)O` [HPA, (6Z,9Z,12Z,15Z,18Z)-heneicosa-6,9,12,15,18-pentaenoic acid] the value was “cognitive improvement”.
